According to patent US20050113318A1, “Combination of dehydroepiandrosterone or dehydroepiandrosterone-sulfate with a beta-agonist bronchodilator for treatment of asthma or chronic obstructive pulmonary disease” (priority 2003, published 2005):
Several values for one entry are separate records, joined by “and”; a condition that tells them apart may be missing. Equal entries are not always repeated.

Assays:
Format in all cases: physicochemical
[1] = Respirable dose studies, Andersen cascade impactor; details: 90 L/min
Method: The respirable dose (respirable fraction) studies were performed using a standard sampler cascade impactor (Andersen), consisting of an inlet cone (an impactor pre-separator was substituted here), 9 stages, 8 collection plates, and a backup filter within 8 aluminum stages held together by 3 spring clamps and gasket O-ring seals, where each impactor stage contains multiple precision drilled orifices. When air is drawn through the sampler, multiple jets of air in each stage direct any airborne particles toward the surface of the collection plate for that stage. The size of the jets is constant for each stage, but is smaller in each succeeding stage. Whether a particle is impacted on any given stage depends upon its aerodynamic diameter. The range of particle sizes collected on each stage depends upon on the jet velocity of the stage, and the cut-off point of the previous stage. Any particle not collected on the first stage follows the air stream around the edge of the plate to the next stage, where it is either impacted or passed on to the succeeding stage, and so on, until the velocity of the jet is sufficient for impaction. To prevent particle bounce during the cascade impactor test, the individual impactor plates were coated with a hexane-grease (high vacuum) solution (100:1 ratio). As noted above, the particle size cut-off points on the impactor plates changed at different airflow rates. […] The set-up recommended by the United States Phamacopeia for testing dry powder inhalers consists of a mouthpiece adapter (silicone in this case) attached to a glass throat (modified 50 ml round-bottom flask) and a glass distal pharynx (induction port) leading top the pre-separator and Andersen sampler. The pre-separator sample includes washings from the mouthpiece adaptor, glass throat, distal glass pharynx and pre-separator. 5 ml acetonitrile:water (1:1 ratio) solvent was placed in the pre-separator before performing the cascade impactor experiment, that were performed in duplicate with 3 different dry powder inhaler devices and at 3 airflow rates, 30, 60 and 90 L/min. The drug collected on the cascade impactor plates were assayed by the HPLC, and a drug mass balance was performed for each Diskhaler and multi-dose cascade impactor experiment consisting of determining the amount of drug left in the blister, the amount of drug remaining in the device (Diskhaler only), the non-respirable amount of the dose retained on the silicone rubber mouth piece adaptor, glass throat, glass distal pharynx and pre-separator, all combined into one sample, and the respirable dose, i.e. Stage 2 through filter impactor plates for airflow rates of 30 and 60 L/min and Stages 1 through filter impactor plates for 90 L/min experiments.
The cascade impactor experiments were conducted as described in Example 3. Four cascade impactor experiments were done, three with a IDL multi-dose device and one with a Diskhaler, all at 90 L/min. […] However, the % respirable dose was still low. This was likely the result of moisture absorption of the anhydrous form.

[2] = HPLC analysis of drug degradation during jet milling; details: single-pass and double-pass vs unmilled standard, HPLC peak area
Method: Two vials (A; single-pass; 150 mg) and (B double-pass; 600 mg) of the micronized drug were available for determining drug degradation during jet milling micronization. […] The chromatographic peak area for the HPLC assay of the unmilled drug standard solution (10 mg/ml) gave a value of 23,427. […] The chromatographic peak areas for vials A and B were 11,979 and 11,677, respectively.

[3] = Fine particle fraction, single-dose Acu-Breathe inhaler into Andersen impactor; details: 30 L/min, IDL data, FIG. 1; result set to zero
Method: These blisters are actuated into the Andersen 8-stage cascade impactor at flow rates ranging from 30 to 75 L/min with a glass twin-impinger throat. Stages 1-5 of the Andersen impactor are rinsed together to obtain an estimate of the fine particle fraction. Pooling the drug collected from multiple stages into one assay make the method much more sensitive. […] Using a carrier with a larger particle size typically improves the aerosol properties of micronized drug substances.
Approximately 25 mg of this powder is filled and sealed in foil blisters and aerosolized using the single-dose device at 60 L/min. The aerosol results for this preliminary powder blend are satisfactory for a respiratory drug delivery system. […] This diameter is smaller than the median diameter measured for micronized DHEA-S.dihydrate by laser diffraction. Irregularly shaped particles can behave aerodynamically as smaller particles since their longest dimension tends to align with the air flow field. Therefore, it is common to see a difference between the two methods. Diffraction measurements are a quality control test for the input material while cascade impaction is a quality control test for the finished product.

[4] = Multi-dose, oven dried drug for 80 minutes
[5] = Multi-dose, oven dried drug for 20 hours

C[C@]12CC[C@H](OS(=O)(=O)[O-])CC1=CC[C@@H]1[C@@H]2CC[C@]2(C)C(=O)CC[C@@H]12.[Na+] [Anhydrous DHEA-S]
respirable dose of spray-dried compared to micronized anhydrous DHEA-S [1]: two-fold increase
Blister [1, 4]: 2.8%
Mass Balance [1, 4]: 100.0%
Preseparator [1, 4]: 78.7%
Respirable Dose [1, 4]: 4.6%
Device ([1]; Multi-dose, oven dried drug for 80 minutes, by difference): 13.9 *^a %
Blister [1, 5]: 5.0%
Mass Balance [1, 5]: 100.0%
Preseparator [1, 5]: 55.9%
Respirable Dose [1, 5]: 1.2%
Device ([1]; Multi-dose, oven dried drug for 20 hours, by difference): 37.9 *^a %
Blister ([1]; jet-milled drug, Diskhaler): 6.6% and 10.1%
Device ([1]; jet-milled drug, Diskhaler): 22.1% and 13.3%
Mass Balance ([1]; jet-milled drug, Diskhaler): 104.3% and 86.0%
Preseparator ([1]; jet-milled drug, Diskhaler): 72.7% and 60.2%
Respirable Dose ([1]; jet-milled drug, Diskhaler): 2.9% and 2.4%
Blister ([1]; jet-milled drug, Multi-dose): 3.8% and 3.9%
Mass Balance ([1]; jet-milled drug, Multi-dose): 100.0%
Preseparator ([1]; jet-milled drug, Multi-dose): 73.3% and 65.8%
Respirable Dose ([1]; jet-milled drug, Multi-dose): 3.6% and 3.8%
Device ([1]; jet-milled drug, Multi-dose, retention obtained by difference): 19.3 *^a % and 26.5 *^a %
Blisters ([1]; spray-dried drug, Diskhaler): 29.0%
Device ([1]; spray-dried drug, Diskhaler): 11.2%
Preseparator ([1]; spray-dried drug, Diskhaler): 56.8%
Respirable Dose ([1]; spray-dried drug, Diskhaler): 5.6%
degradation of the drug during jet milling micronization [2]: no detectable degradation
fine particle fraction [3]: no detectable mass entered the impactor
